These results are taken from patent EP1019392B1, “TRICYCLIC AMIDES USEFUL FOR INHIBITION OF G-PROTEIN FUNCTION AND FOR TREATMENT OF PROLIFERATIVE DISEASES” (SCHERING CORPORATION, priority 1995, dated 1997).

In test [1] the test system is DLD-1 (human colon carcinoma cells, ATCC # CCL 221). In words: In Vivo Anti-Tumor Studies, subcutaneous DLD-1 tumors. On the set-up: species or system athymic nu/nu female mice. The conditions noted are these: Mus musculus, DLD-1, po, QID, 4 weeks, range over the listed compounds. The source says:
Tumor cells (5 X 10^5 to 8 X 10^6) of DLD-1 (human colon carcinoma cells, ATCC # CCL 221) are innolculated subcutaneously into the flank of 5-6 week o;d athymic nu/nu female mice.

Test [2] relates to Normal human HEPM fibroblasts. Kind of test: Cell Mat Assay, normal cell mat. The test is classed as cell-based. The conditions noted are these: normal monolayer.
The test system of test [3] is SW620-BAG human colon carcinoma cells expressing an activated K-ras gene. Kind of test: Cell Mat Assay, SW620 tumor cells. The test is classed as cell-based.
The subject of test [4] is DLD-1-BAG human colon carcinoma cells expressing as activated K-ras gene. In words: Cell Mat Assay, DLD-1 tumor cells. The test is classed as cell-based.
The subject of test [5] is T24-BAG4 human bladder carcinoma cells expressing an activated H-ras gene. Kind of test: Cell Mat Assay, T24 tumor cells. The format is cell-based. The conditions noted are these: read-out: Tumor (T-24) IC50.
Test [6] deals with T1, farnesyl protein transferase (FPT) (Rattus norvegicus, UniProt Q02293+Q04631).
T1 construct: were partially purified from rat brain by ammonium sulfate fractionation followed by Q-Sepharose; from tissue; host or cells: rat brain
In words: In vitro enzyme assay: inhibition of farnesyl protein transferase (transfer of [3H]farnesyl to Ras-CVLS). The format is biochemical. The conditions noted are these: partially purified rat brain FPT, Ras-CVLS. Here is the method:
• 1. In vitro enzyme assays: Inhibition of farnesyl protein transferase and geranylgeranyl protein transferase. […] Human farnesyl protein transferase was also expressed in E. coli, using cDNA clones encoding both the a and b subunits. […] Human farnesyl protein transferase was partially-purified from the soluble protein fraction of E. coli as described above. […] Two forms of val^12-Ha-Ras protein were prepared as substrates for these enzymes, differing in their carboxy terminal sequence. One form terminated in cysteine-valine-leucine-serine (Ras-CVLS) the other in cystein-valine-leucine-leucine (Ras-CVLL). Ras-CVLS is a substrate for the farnesyl protein transferase while Ras-CVLL is a substrate for geranylgeranyl protein transferase I. The cDNAs encoding these proteins were constructed so that the proteins contain an amino-terminal extension of 6 histidine residues. Both proteins were expressed in Escherichia coli and purified using metal chelate affinity chromatography. The radiolabelled isoprenyl pyrophosphate substrates, [^3H]farnesyl pyrophosphate and [^3H]geranylgeranyl pyrophosphate, were purchased from DuPont/New England Nuclear. […] The reaction was allowed to proceed for 30 minutes at room temperature and then stopped with 0.5 ml of 4% sodium dodecyl sulfate (SDS) followed by 0.5 ml of cold 30% TCA. Samples were allowed to sit on ice for 45 minutes and precipitated Ras protein was then collected on GF/C filter paper mats using a Brandel cell harvester. […] Percent inhibition was calculated relative to the DMSO vehicle control. The geranylgeranyl protein transferase I assay was essentially identical to the farnesyl protein transferase assay described above, with two exceptions: [^3H]geranylgeranylpyrophosphate replaced farnesyl pyrophosphate as the isoprenoid donor and Ras-CVLL was the protein acceptor. […] Cell-Based Assay: Transient expression of val^12-Ha-Ras-CVLS and val^12-Ha-Ras-CVLL in COS monkey kidney cells: Effect of farnesyl protein transferase inhibitors on Ras processing and on disordered cell growth induced by transforming Ras. COS monkey kidney cells were transfected by electroporation with the plasmid pSV-SPORT (Gibco/BRL) containing a cDNA insert encoding either Ras-CVLS or Ras-CVLL, leading to transient overexpression of a Ras substrate for either farnesyl protein transferase or geranylgeranyl protein transferase I, respectively (see above). Following electroporation, cells were plated into 6-well tissue culture dishes containing 1.5 ml of Dulbecco's-modified Eagle's media (GIBCO, Inc.) supplemented with 10% fetal calf serum and the appropriate farnesyl protein transferase inhibitors. After 24 hours, media was removed and fresh media containing the appropriate drugs was re-added. 48 hours after electroporation cells were examined under the microscope to monitor disordered cell growth induced by transforming Ras. Cells expressing transforming Ras become more rounded and refractile and overgrow the monolayer, reminiscent of the transformed phenotype. Cells were then photographed, washed twice with 1 ml of cold phosphate-buffered saline (PBS) and removed from the dish by scraping with a rubber policeman into 1 ml of a buffer containing 25 mM Tris, pH 8.0; 1 mM ethylenediamine tetraacetic acid; 1 mM phenylmethylsulfonyl fluoride; […] leupeptin; and 0.1 mM pepstatin. Cells were lysed by homogenization and cell debris was removed by centrifugation at 2000 x g for 10 min. Cellular protein was precipitated by addition of ice-cold trichloroacetic acid and redissolved in […] of SDS-electrophoresis sample buffer. […] Proteins resolved on the gels were electroblotted onto nitrocellulose membranes for immunodetection. […] After washing, membranes were incubated for one hour at room temperature with a 1:5000 dilution of secondary antibody, rabbit anti-rat IgG conjugated to horseradish peroxidase, in PBS containing 1% fetal calf serum.

Test [7] relates to Ras-CVLS processing in COS monkey kidney cells. In words: COS cell assay: inhibition of Ras-CVLS processing (Western blot). The format is cell-based. The source says: • 1. In vitro enzyme assays: Inhibition of farnesyl protein transferase and geranylgeranyl protein transferase. Both farnesyl protein transferase (FPT) and geranylgeranyl protein transferase (GGPT) I were partially purified from rat brain by ammonium sulfate fractionation followed by Q-Sepharose (Pharmacia, Inc.) anion exchange chromatography essentially as described by Yokoyama et al (Yokoyama, K., et al., (1991), A protein geranylgeranyltransferase from bovine brain: Implications for protein prenylation specificity, Proc. Natl. Acad. Sci USA 88: 5302-5306, the disclosure of which is incorporated herein by reference thereto). Human farnesyl protein transferase was also expressed in E. coli, using cDNA clones encoding both the a and b subunits. The methods used were similar to those published (Omer, C. et al., (1993), Characterization of recombinant human farnesyl protein transferase: Cloning, expression, farnesyl diphosphate binding, and functional homology with yeast prenyl-protein transferases, Biochemistry 32:5167-5176). Human farnesyl protein transferase was partially-purified from the soluble protein fraction of E. coli as described above. […] Two forms of val^12-Ha-Ras protein were prepared as substrates for these enzymes, differing in their carboxy terminal sequence. One form terminated in cysteine-valine-leucine-serine (Ras-CVLS) the other in cystein-valine-leucine-leucine (Ras-CVLL). Ras-CVLS is a substrate for the farnesyl protein transferase while Ras-CVLL is a substrate for geranylgeranyl protein transferase I. The cDNAs encoding these proteins were constructed so that the proteins contain an amino-terminal extension of 6 histidine residues. Both proteins were expressed in Escherichia coli and purified using metal chelate affinity chromatography. The radiolabelled isoprenyl pyrophosphate substrates, [^3H]farnesyl pyrophosphate and [^3H]geranylgeranyl pyrophosphate, were purchased from DuPont/New England Nuclear. Several methods for measuring farnesyl protein transferase activity have been described (Reiss et al 1990, Cell 62: 81; Schaber et al 1990, J. Biol. Chem. 265: 14701; Manne et al 1990, PNAS 87: 7541; and Barbacid & Manne 1993, U.S. Patent No. 5,185,248). […] The reaction was allowed to proceed for 30 minutes at room temperature and then stopped with 0.5 ml of 4% sodium dodecyl sulfate (SDS) followed by 0.5 ml of cold 30% TCA. Samples were allowed to sit on ice for 45 minutes and precipitated Ras protein was then collected on GF/C filter paper mats using a Brandel cell harvester. Filter mats were washed once with 6% TCA, 2% SDS and radioactivity was measured in a Wallac 1204 Betaplate BS liquid scintillation counter. Percent inhibition was calculated relative to the DMSO vehicle control. The geranylgeranyl protein transferase I assay was essentially identical to the farnesyl protein transferase assay described above, with two exceptions: [^3H]geranylgeranylpyrophosphate replaced farnesyl pyrophosphate as the isoprenoid donor and Ras-CVLL was the protein acceptor. […] Cell-Based Assay: Transient expression of val^12-Ha-Ras-CVLS and val^12-Ha-Ras-CVLL in COS monkey kidney cells: Effect of farnesyl protein transferase inhibitors on Ras processing and on disordered cell growth induced by transforming Ras. COS monkey kidney cells were transfected by electroporation with the plasmid pSV-SPORT (Gibco/BRL) containing a cDNA insert encoding either Ras-CVLS or Ras-CVLL, leading to transient overexpression of a Ras substrate for either farnesyl protein transferase or geranylgeranyl protein transferase I, respectively (see above). Following electroporation, cells were plated into 6-well tissue culture dishes containing 1.5 ml of Dulbecco's-modified Eagle's media (GIBCO, Inc.) supplemented with 10% fetal calf serum and the appropriate farnesyl protein transferase inhibitors. After 24 hours, media was removed and fresh media containing the appropriate drugs was re-added.
(In general: Immunoblotting shows a protein as a band on a membrane.)

[8] abbreviates: Homo sapiens, SW-620, Mat assay.

Read-outs that look alike come from different tables or passages of the source.

The term inhibition in vivo denotes the change of the read-out against control, counted positive when it falls. What is called IC50 is the concentration at which inhibition is half-maximal.

The compound `NC(=O)N1CCC(CC(=O)N2CCN(C3c4ncc(Br)cc4CCc4cc(Cl)cc(Br)c43)CC2)CC1` (single isomer, unassigned) [Example 12B] returned an inhibition in vivo at 10 mg/kg in test [1] (10 mg/kg p.o.) of 7 to 50%. Besides, the inhibition in vivo at 50 mg/kg in test [1] (50 mg/kg p.o.) was 35.4 to 83%. For the same compound, the IC50 in test [2] is more than 25 µM; in test [3] (Mat assay), 6.25 µM; in test [4] (Mat assay), 3.1 µM; in test [5], less than 1.6 µM; in test [6] (FPT IC50, Table 1), 0.0025 µM; in test [7] it was less than 0.025 µM.
With `O=C(Cc1cc[n+]([O-])cc1)N1CCC(C2c3ccc(Cl)c(Br)c3CCc3cc(Br)cnc32)CC1` (single isomer, unassigned) [Example 14], the IC50 in test [2] is more than 25 µM; in test [3] (Mat assay), more than 12.5 µM; in test [4] (Mat assay) it was 6.25 µM; in test [5], less than 1.6 µM; in test [6] (Table 1, read-out: FPT IC50) it was 0.062 µM; in test [7], more than 1 µM.
In the case of `NC(=O)N1CCC(CC(=O)N2CCC(=C3c4ncc(Br)cc4CCc4cc(Cl)cc(Br)c43)CC2)CC1` (racemic) [Example 8], the IC50 in test [2] (Homo sapiens, Fibroblast) is more than 25 µM; in test [3] (setting [8]), 3.1 µM; in test [4] (Homo sapiens, DLD-1, Mat assay), 3.1 µM; in test [5] (Homo sapiens), less than 1.6 µM; in test [7] (Primates, COS) it was less than 0.25 µM.
`NC(=O)N1CCC(CC(=O)N2CCN([C@H]3c4ccc(Cl)cc4CCc4cc(Br)cnc43)CC2)CC1` [Example 17A]: the IC50 in test [2] (Homo sapiens, Fibroblast) is more than 25 µM; in test [3] (setting [8]), 18 µM; in test [4] (Homo sapiens, DLD-1, Mat assay) it was 4 µM; in test [5] (Homo sapiens) it was 3.1 µM; in test [6] (Table 1, read-out: FPT IC50), 0.048 µM; in test [7] (Primates, COS) it was 0.5 µM.
Take `NC(=O)N1CCC(CC(=O)N2CCC(=C3c4ccc(Cl)c(Br)c4CCc4cc(Br)cnc43)CC2)CC1` (racemic) [Example 15]: the IC50 in test [2] (Homo sapiens, Fibroblast) is more than 25 µM; in test [3] (setting [8]) it was more than 6.25 µM; in test [4] (Homo sapiens, DLD-1, Mat assay), 6.25 µM; in test [5] (Homo sapiens), 3.1 µM; in test [6] (Table 1, read-out: FPT IC50), 0.022 µM; in test [7] (Primates, COS), 0.6 µM.
With `NC(=O)N1CCC(CC(=O)N2CCC(=C3c4ncc(Br)cc4CCc4cc(Cl)cc(Br)c43)CC2)CC1` (single isomer, unassigned) [Example 8A], the concentration for half-maximal inhibition (IC50) was more than 25 µM in test [2] (Homo sapiens, Fibroblast); 3.1 µM in test [3] (setting [8]); less than 1.6 µM in test [4] (Homo sapiens, DLD-1, Mat assay); less than 1.6 µM in test [5] (Homo sapiens); more than 1 µM in test [7].
With `NC(=O)N1CCC(CC(=O)N2CCN(C3c4ncc(Br)cc4CCc4cc(Cl)cc(Br)c43)CC2)CC1` (single isomer, unassigned) [Example 12A], the half-inhibitory concentration (IC50) was more than 25 µM in test [2] (Homo sapiens, Fibroblast); 4 µM in test [3] (setting [8]); 2 µM in test [4] (Homo sapiens, DLD-1, Mat assay); less than 1.6 µM in test [5] (Homo sapiens); more than 0.094 µM in test [6] (FPT IC50, Table 1); 0.95 µM in test [7].
On to `O=C(Cc1cc[n+]([O-])cc1)N1CCN([C@@H]2c3ncc(Br)cc3CCc3cc(Cl)cc(Br)c32)CC1` [Example 11B], for which the IC50 in test [2] is more than 25 µM; in test [3] (Mat assay), 18 µM; in test [4] (Mat assay), 8 µM; in test [5], less than 1.6 µM; in test [6] (Table 1, read-out: FPT IC50), more than 0.095 µM.
